Consider 14 compounds from ChEMBL document CHEMBL5236574, “Identification of a new and diverse set of Mycobacterium tuberculosis uracil-DNA glycosylase (MtUng) inhibitors using structure-based virtual screening: Experimental validation and molecular dynamics studies” (Bioorg Med Chem Lett, 2022).

Target in the first test: not listed separately
The test is described as follows: Inhibition of Mycobacterium tuberculosis uracil-DNA glycosylase by fluorescence based assay.
A word on the IC50: it is the concentration at which inhibition is half-maximal. Regarding `CC(C)(C)[C@H](COc1ccccc1F)NC(=O)c1nc(=O)[nH][nH]1`, the concentration for half-maximal inhibition (IC50) turned out to be 11.3 mM. This counts as millimolar. In turn, `COc1ccc(C(=O)Nc2c[nH]c(=O)[nH]c2=O)cc1[N+](=O)[O-]` had an IC50 of 15.3 mM. For `CC(C)c1ccc(OCC(=O)Nc2c[nH]c(=O)[nH]c2=O)cc1`, the IC50 came to 7.63 mM. For the compound `O=c1cc(Nc2ccc(N3CCCCC3)cc2)[nH]c(=O)[nH]1`, 0.8 mM corresponded to half-maximal inhibition (IC50). Against the preceding compound, the IC50 is about 9.5-fold lower. For the compound `CC(C)(Cc1cccc(Cl)c1)C(=O)NCCc1n[nH]c(=O)[nH]1`, the IC50 is 4.08 mM. Still for that read-out and setting: in the case of `O=C(NCc1nc2ccc(Cl)cc2[nH]1)c1c[nH]c(=O)[nH]c1=O` it was 6.53 mM; in that of `CC(=O)N(CC(O)CO)c1c(I)c(C(=O)NCC(O)CO)c(I)c(C(=O)NCC(O)CO)c1I` (stereo not given) [IOHEXOL], 0.6 mM. Compound `Cc1[nH]c(=O)[nH]c(=O)c1CC(=O)N(Cc1ccc2c(c1)OCO2)Cc1ccccc1F` had an IC50 of 0.14 mM. As for `Cc1ccc(-c2csc3c(=O)n(CC#N)cnc23)cc1`, half-maximal inhibition (IC50) was put at 7.93 mM. The same measure, in the same setting: in the case of `O=C(Nc1c[nH]c(=O)[nH]c1=O)c1cccc(N2C(=O)CCC2=O)c1` it was 2.12 mM; in that of `Cc1ccc(CCOc2ccc(C[C@@H]3SC(=O)NC3=O)cc2)nc1`, 8.82 mM. Compound `CCC(C)(C)C(=O)O[C@H]1C[C@@H](C)C=C2C=C[C@H](C)[C@H](CC[C@@H]3C[C@@H](O)CC(=O)O3)[C@H]21` [SIMVASTATIN] returned a 50% inhibitory concentration (IC50) of 1.04 mM. `O=C1CN(/N=C/c2ccc([N+](=O)[O-])o2)C(=O)N1` [NITROFURANTOIN] returned a half-inhibitory concentration (IC50) of 0.98 mM. The IC50 values of the last two compounds are within 1.5-fold of each other.

The next test concerns Mycobacterium tuberculosis. The test is described as follows: Potency index, ratio of uracil IC50 to test compound IC50 for inhibition of Mycobacterium tuberculosis uracil-DNA glycosylase.
Turning to `Cc1[nH]c(=O)[nH]c(=O)c1CC(=O)N(Cc1ccc2c(c1)OCO2)Cc1ccccc1F`, the Ratio IC50 was determined as 15.

Test system in a further test: not listed separately
Nature of the test: Inhibition of Mycobacterium tuberculosis uracil-DNA glycosylase expressed in Escherichia coli BL21 (DE3) rosetta cells incubated for 10 sec under shaking condition and measured every 2 mins for 40 mins by fluorescence based assay.
Compound `O=c1cc[nH]c(=O)[nH]1` [URACIL] showed an IC50 of 2.05 mM. This lies in the millimolar range.
